Results from the NIST ThermoML archive (doi:10.1021/acs.jced.8b01250).
± gives the expanded uncertainty stated by the source.

Tests used:
[1] = Crystal; DSC
[2] = Molar enthalpy of transition or fusion; conditions: Crystal; DSC

Triple point temperature [1]: 435.55 ± 1.2 K
Molar enthalpy of transition or fusion [2]: 4.59 ± 0.194 kcal/mol
Compound: N#Cc1cccc([N+](=O)[O-])c1C#N [3-nitrophthalonitrile]
